Experimental data taken from ChEMBL document CHEMBL1132820, “DNA minor groove interactions and the biological activity of 2,5-bis” (Bioorg Med Chem Lett, 2000).

What was measured:
Rattus norvegicus [1] = test: Number of mean cysts/g of lung tissue observed at 9-10 uM/kg/day dose of compound tested in vivo against Pneumocystis carinii pneumonia infected rats; type: functional
Rattus norvegicus [2] = test: Number of mean cysts/g of lung tissue observed at 0.9 uM/kg/day dose of compound tested in vivo against Pneumocystis carinii pneumonia infected rats; type: functional

| Compound | PCP activity (Rattus norvegicus [1]) [cysts g-1] | PCP activity (Rattus norvegicus [2]) [cysts g-1] |
| --- | --- | --- |
| N=C(NC1CCCCC1)c1ccc(-c2ccc(-c3ccc(C(=N)NC4CCCCC4)cc3)o2)cc1 | 0.02 | 26.2 |
| N=C(NC1CCCC1)c1ccc(-c2ccc(-c3ccc(C(=N)NC4CCCC4)cc3)o2)cc1 | 0.03 | 0.11 |
| N=C(NC1CCC1)c1ccc(-c2ccc(-c3ccc(C(=N)NC4CCC4)cc3)o2)cc1 | 0.05 | 0.67 |
